This is an account of results in ChEMBL document CHEMBL2417359, “Discovery of N-(2,3,5-triazoyl)mycophenolic amide and mycophenolic epoxyketone as novel inhibitors of human IMPDH” (Bioorg Med Chem Lett, 2013).

Assay [1] concerns K562. As to the kind of experiment: Cytotoxicity against human K562 cells. Format: functional, cell-based.
Assay [2] has as its system K562. As to the kind of experiment: Antiproliferative activity against human K562 cells at 1 mM in presence of guanosine. The class given is functional, cell-based.
The test system of assay [3] is K562. Description: Induction of human K562 cell differentiation at 1 uM after 72 hrs by trypan blue exclusion assay in presence of guanosine. The class given is functional, cell-based.
Assay [4] has as its system K562. Description: Antiproliferative activity against human K562 cells at 1 uM in presence of guanosine. The class given is functional, cell-based.
For assay [5], the target named is Histone deacetylase (Homo sapiens) (UniProt Q13547+O15379+Q9UBN7+Q92769+Q9UQL6+Q8WUI4+Q9BY41+Q96DB2+P56524+Q9UKV0+Q969S8). Description: Inhibition of HDAC in human K562 cells using Boc-Lys[Ac]-AMC as substrate at 10 uM incubated for 10 mins prior to substrate addition measured after 80 mins by fluorescence assay. The class given is cell-based.
Assay [6] has as its system K562. As to the kind of experiment: Antiproliferative activity against human K562 cells at 1 uM. The class given is functional, cell-based.
The subject of assay [7] is K562. Description: Induction of human K562 cell differentiation at 2.5 uM after 72 hrs by trypan blue exclusion assay in presence of guanosine. The class given is functional, cell-based.
Assay [8] has as its system K562. As to the kind of experiment: Antiproliferative activity against human K562 cells at 2.5 uM in presence of guanosine. The class given is functional, cell-based.
The test system of assay [9] is K562. As to the kind of experiment: Antiproliferative activity against human K562 cells at 2.5 uM. The class given is functional, cell-based.
The test system of assay [10] is K562. Description: Induction of human K562 cell differentiation at 1 to 30 uM after 72 hrs by trypan blue exclusion assay in presence of guanosine. The class given is functional, cell-based.
For assay [11], the species on record is Homo sapiens. Description: Selectivity index, ratio of IC50 for human IMPDH1 to IC50 for human IMPDH2.
In assay [12] the target is Inosine-5'-monophosphate dehydrogenase 1 (Homo sapiens, UniProt P20839). As to the kind of experiment: Inhibition of human IMPDH1.
Inosine-5'-monophosphate dehydrogenase 1, sequence (P20839 whole entry): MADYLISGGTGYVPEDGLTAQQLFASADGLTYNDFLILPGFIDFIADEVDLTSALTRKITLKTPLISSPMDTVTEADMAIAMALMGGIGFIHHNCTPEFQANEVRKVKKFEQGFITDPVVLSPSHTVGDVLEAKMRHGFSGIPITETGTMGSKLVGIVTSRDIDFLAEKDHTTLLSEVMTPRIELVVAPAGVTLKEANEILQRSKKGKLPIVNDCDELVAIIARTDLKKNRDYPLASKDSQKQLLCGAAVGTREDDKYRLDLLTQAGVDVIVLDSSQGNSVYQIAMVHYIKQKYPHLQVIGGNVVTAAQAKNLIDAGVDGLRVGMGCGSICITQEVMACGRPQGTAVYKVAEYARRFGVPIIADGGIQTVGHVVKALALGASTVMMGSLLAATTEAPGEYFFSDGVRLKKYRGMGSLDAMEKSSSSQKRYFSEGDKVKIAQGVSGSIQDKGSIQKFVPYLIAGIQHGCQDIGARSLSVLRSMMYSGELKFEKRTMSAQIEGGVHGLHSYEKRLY
Assay [13] concerns the target Inosine-5'-monophosphate dehydrogenase 2 (Homo sapiens, UniProt P12268). Description: Inhibition of human IMPDH2.
The test system of assay [14] is K562. As to the kind of experiment: Induction of human K562 cell differentiation at 30 uM after 72 hrs by trypan blue exclusion assay. Format: functional, cell-based.
Assay [15] relates to K562. As to the kind of experiment: Induction of human K562 cell differentiation at 5 uM after 72 hrs by trypan blue exclusion assay in presence of guanosine. The class given is functional, cell-based.
In assay [16] the test system is K562. Description: Antiproliferative activity against human K562 cells at 5 uM in presence of guanosine. Format: functional, cell-based.
For assay [17], the system named is K562. Description: Antiproliferative activity against human K562 cells at 5 uM. The class given is functional, cell-based.

Values joined by “and” are separate entries in the source; they are usually repeats but may differ in a detail not shown here. Equal values may be shown once. Active and inactive are the calls of the source. No cut-off for these calls is given here.

In assay [1], `COc1c(C)c2c(c(O)c1C/C=C(\C)CCC(=O)Nc1ccccn1)C(=O)OC2` yielded a 50% inhibitory concentration (IC50) of 26 µM.

For the compound `CCCC(=O)[O-].[Na+]`, the outcome in [2] was Active.

As for `COc1c(C)c2c(c(O)c1C/C=C(\C)CCC(=O)O)C(=O)OC2`, the outcome in assay [3] and in [4] was inactive. The inhibition in assay [5] worked out at 3%. Besides, the result in [6] was Active.

Regarding `COc1c(C)c2c(c(O)c1C/C=C(\C)CCC(=O)Nc1nccs1)C(=O)OC2`, half-maximal inhibition in assay [1] (IC50) was put at 22 µM.

As for `COc1c(C)c2c(c(O)c1C/C=C(\C)CCC(=O)NO)C(=O)OC2`, the result in assay [7] and in [8] was inactive. The inhibition in assay [5] was 76%. Besides, the outcome in assay [9] was Active.

As to `COc1c(C)c2c(c(O)c1C/C=C(\C)CCC(=O)Nc1ncn[nH]1)C(=O)OC2`, the result in [10] and in assay [4] was inactive. Besides, in assay [11], the Ratio IC50 worked out at 1.1. The results for the IC50 in assay [12], in assay [13] and in [1] were 105 nM, 98 nM and 0.48 µM, respectively. Also, the result in [6] and in assay [14] was Active.

For `COc1c(C)c2c(c(O)c1C/C=C(\C)CCC(=O)Nc1nncs1)C(=O)OC2`, the IC50 in assay [1] was 27 µM.

Consider `COc1c(C)c2c(c(O)c1C/C=C(\C)CCC(=O)[C@@H]1CO1)C(=O)OC2` [listing 1 of 3 here], for which the IC50 was found to be 558 nM in assay [12], 330 nM in assay [13] and 2.9 µM in assay [1].

On to `COc1c(C)c2c(c(O)c1C/C=C(\C)CCC(=O)[C@@H]1CO1)C(=O)OC2` [listing 2 of 3 here], for which the figures for the half-maximal inhibitory concentration (IC50) in [12], in assay [13] and in [1] were 680 nM, 387 nM and 2.3 µM, respectively.

For the compound `COc1c(C)c2c(c(O)c1C/C=C(\C)CCC(=O)Nn1cnnc1)C(=O)OC2`, the IC50 in assay [1] turned out to be 31 µM.

`COc1c(C)c2c(c(O)c1C/C=C(\C)CCCS)C(=O)OC2`: in assay [1], the IC50 came to 74 µM.

As for `COc1c(C)c2c(c(O)c1C/C=C(\C)CCCSC(C)=O)C(=O)OC2`, in assay [1], the IC50 came to 26 µM.

In the case of `COc1c(C)c2c(c(O)c1C/C=C(\C)CCC(=O)Nc1nnn[nH]1)C(=O)OC2`, the IC50 in assay [1] turned out to be 34 µM.

For the compound `COc1c(C)c2c(c(O)c1C/C=C(\C)CCC(=O)[C@@H]1CO1)C(=O)OC2` [listing 3 of 3 here], the result in assay [15] and in assay [16] was inactive. Besides, in assay [5], the inhibition is 15% and 19%. For the same compound, the Ratio IC50 in [11] is 1.8 and 1.7. Besides, in assay [17], the result was Active.

By IC50 is commonly meant the concentration at which inhibition is half-maximal. High values mean lower potency, low ones higher potency. The term inhibition denotes the percentage by which the read-out fell short of the control. Read a high inhibition as strong suppression.
